# Where two headings read alike, the source gives them in different places.
# How the values were obtained:
# [1] = cited from earlier work
# [2] = cited from earlier work; remark: listed apart in the source
# Solubility = assay type: physicochemical; conditions: 25° C. and pH 4.3
smiles,measurement,setting,value
"O=C(O)CNCP(=O)(O)O [glyphosate, N-phosphonomethylglycine]",solubility in water,[1]; 25° C.,11.6 grams per liter of water
same,solubility in common organic solvents,"[1]; acetone, alcohol and xylene",insoluble
same,pKa (first of three printed),[2],2.74
same,pKa (second of three printed),[2],5.63
same,pKa (third of three printed),[2],10.18
CC(C)N.O=C(O)CNCP(=O)(O)O [isopropylamine salt of glyphosate],solubility in water as equivalent PMG-acid,Solubility; per 1000 g water,778 grams of equivalent PMG-acid per liter
same,"weight percent ""acid"" in the saturated solution",Solubility; saturated aqueous solution,37.95%
same,solubility in water,[1]; 25° C. and pH 4.3,1050 grams of salt in a liter of water

# Source: US20060194699A1, “Sprayable non-aqueous, oil-continuous microemulsions and methods of making same” (priority 2003, published 2006)
